Reference: ChEMBL document CHEMBL4411294, “Synthesis and biological evaluation of cyanoaziridine phosphine oxides and phosphonates with antiproliferative activity” (Eur J Med Chem, 2019)

How the values were obtained:
[1] = system: MRC5; assay: Cytotoxicity against human MRC5 cells assessed as reduction in cell viability after 48 hrs by CCK8 assay; format: cell-based; settings: MRC5, 48 h
[2] = system: A549; assay: Cytotoxicity against human A549 cells assessed as reduction in cell viability after 48 hrs by CCK8 assay; format: functional, cell-based; settings: A549, 48 h
[3] = system: HEK293; assay: Cytotoxicity against human HEK293 cells assessed as reduction in cell viability after 48 hrs by CCK8 assay; format: cell-based; settings: HEK293, 48 h

Row | SMILES | IC50 [1] | IC50 [2] | IC50 [3]
1 | C[C@@]1(C#N)N[C@H]1P(=O)(c1ccccc1)c1ccccc1 (relative stereo) | > 50 µM | 2 µM | > 50 µM
2 | CC[C@]1(C#N)[C@H](P(=O)(c2ccccc2)c2ccccc2)N1S(=O)(=O)c1ccc(C)cc1 (relative stereo) | > 50 µM | 2.3 µM | 43.2 µM
3 | Cc1ccc(S(=O)(=O)N2[C@@H](P(=O)(OC(C)C)OC(C)C)[C@]2(C)C#N)cc1 (relative stereo) | > 50 µM | 3.4 µM | > 50 µM
4 | CC[C@@]1(C#N)N[C@H]1P(=O)(c1ccccc1)c1ccccc1 (relative stereo) | > 50 µM | 3.3 µM | > 50 µM
5 | C[C@@]1(C#N)N[C@H]1P(=O)(O)O (relative stereo) | > 50 µM | 8.5 µM | > 50 µM
6 | CCOP(=O)(OCC)[C@@H]1N(S(=O)(=O)c2ccc(C)cc2)[C@]1(C#N)CC (relative stereo) | > 50 µM | 4.9 µM | > 50 µM
7 | CCOP(=O)(OCC)[C@@H]1N(S(=O)(=O)c2ccc(C)cc2)[C@@]1(C)C#N (relative stereo) | > 50 µM | – | > 50 µM
8 | C[C@]1(C#N)[C@H](P(=O)(c2ccccc2)c2ccccc2)N1C(=O)OCc1ccccc1 (relative stereo) | > 50 µM | 8.1 µM | 30.1 µM
9 | Cc1ccc(S(=O)(=O)N2[C@@H](P(=O)(c3ccccc3)c3ccccc3)[C@]2(C)C#N)cc1 (relative stereo) | > 50 µM | 3.1 µM | > 50 µM
10 | COc1cccc2c1C(=O)c1c(O)c3c(c(O)c1C2=O)C[C@@](O)(C(=O)CO)C[C@@H]3O[C@H]1C[C@H](N)[C@H](O)[C@H](C)O1 [DOXORUBICIN] | > 50 µM | – | –
